Experiments:
[1] = biological target: T1, Alpha-1A adrenergic receptor (Homo sapiens, UniProt P35348)
T1 sequence (P35348 whole entry): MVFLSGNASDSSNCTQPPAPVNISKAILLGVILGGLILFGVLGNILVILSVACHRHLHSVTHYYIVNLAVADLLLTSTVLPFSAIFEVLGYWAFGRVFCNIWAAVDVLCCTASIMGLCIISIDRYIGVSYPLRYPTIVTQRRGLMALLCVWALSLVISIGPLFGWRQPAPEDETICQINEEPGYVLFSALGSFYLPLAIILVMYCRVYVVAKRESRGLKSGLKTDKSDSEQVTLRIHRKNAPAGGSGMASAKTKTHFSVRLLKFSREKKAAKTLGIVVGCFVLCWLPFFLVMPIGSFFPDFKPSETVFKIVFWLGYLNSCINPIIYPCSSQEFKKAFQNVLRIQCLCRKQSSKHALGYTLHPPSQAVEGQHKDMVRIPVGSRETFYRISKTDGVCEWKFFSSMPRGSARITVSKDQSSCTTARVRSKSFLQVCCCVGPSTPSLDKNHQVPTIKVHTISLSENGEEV

Mu-type opioid receptor [2] = biological target: T2, Mu-type opioid receptor (Homo sapiens, UniProt P35372)
Estrogen receptor = biological target: T3, Estrogen receptor (Homo sapiens, UniProt P03372)
T3 sequence (P03372 whole entry): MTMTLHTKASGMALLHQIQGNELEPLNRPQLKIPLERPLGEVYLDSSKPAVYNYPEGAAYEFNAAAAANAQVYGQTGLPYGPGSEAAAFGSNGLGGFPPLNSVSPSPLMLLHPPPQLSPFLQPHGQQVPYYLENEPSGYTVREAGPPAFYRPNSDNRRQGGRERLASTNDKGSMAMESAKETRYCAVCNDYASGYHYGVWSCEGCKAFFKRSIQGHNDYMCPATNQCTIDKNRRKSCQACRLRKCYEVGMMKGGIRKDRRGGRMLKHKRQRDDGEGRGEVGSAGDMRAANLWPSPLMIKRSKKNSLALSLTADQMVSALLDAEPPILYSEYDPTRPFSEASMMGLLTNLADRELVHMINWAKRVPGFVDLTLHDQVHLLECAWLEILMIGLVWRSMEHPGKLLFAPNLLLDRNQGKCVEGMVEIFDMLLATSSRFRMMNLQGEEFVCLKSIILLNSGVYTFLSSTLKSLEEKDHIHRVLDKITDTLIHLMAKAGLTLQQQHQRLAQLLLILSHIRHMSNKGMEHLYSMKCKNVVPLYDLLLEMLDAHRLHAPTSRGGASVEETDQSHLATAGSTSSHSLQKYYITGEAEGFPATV

[3] = biological target: Voltage-gated inwardly rectifying potassium channel KCNH2 (Homo sapiens, UniProt Q12809); format: functional; conditions: read-out: AC50
[4] = biological target: Neuronal acetylcholine receptor subunit alpha-4 (Homo sapiens, UniProt P43681)
Melanocortin receptor 4 = Melanocortin receptor 4 (Homo sapiens, UniProt P32245)
Adenosine receptor A1 = biological target: T4, Adenosine receptor A1 (Homo sapiens, UniProt P30542)
T4 sequence (P30542 whole entry): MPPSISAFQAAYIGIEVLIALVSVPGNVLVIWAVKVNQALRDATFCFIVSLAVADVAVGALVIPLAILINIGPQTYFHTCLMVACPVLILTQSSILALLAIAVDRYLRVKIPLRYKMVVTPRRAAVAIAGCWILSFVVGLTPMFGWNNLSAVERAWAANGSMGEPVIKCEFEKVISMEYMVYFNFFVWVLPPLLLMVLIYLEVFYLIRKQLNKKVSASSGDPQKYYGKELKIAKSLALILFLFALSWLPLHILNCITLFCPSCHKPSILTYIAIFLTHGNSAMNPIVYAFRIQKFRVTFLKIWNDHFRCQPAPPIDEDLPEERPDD

[5] = biological target: Glutamate receptor ionotropic, NMDA 1 (Rattus norvegicus, UniProt P35439)
[6] = biological target: T5, 5-hydroxytryptamine receptor 3A (Homo sapiens, UniProt P46098); format: functional
T5 sequence (P46098 whole entry): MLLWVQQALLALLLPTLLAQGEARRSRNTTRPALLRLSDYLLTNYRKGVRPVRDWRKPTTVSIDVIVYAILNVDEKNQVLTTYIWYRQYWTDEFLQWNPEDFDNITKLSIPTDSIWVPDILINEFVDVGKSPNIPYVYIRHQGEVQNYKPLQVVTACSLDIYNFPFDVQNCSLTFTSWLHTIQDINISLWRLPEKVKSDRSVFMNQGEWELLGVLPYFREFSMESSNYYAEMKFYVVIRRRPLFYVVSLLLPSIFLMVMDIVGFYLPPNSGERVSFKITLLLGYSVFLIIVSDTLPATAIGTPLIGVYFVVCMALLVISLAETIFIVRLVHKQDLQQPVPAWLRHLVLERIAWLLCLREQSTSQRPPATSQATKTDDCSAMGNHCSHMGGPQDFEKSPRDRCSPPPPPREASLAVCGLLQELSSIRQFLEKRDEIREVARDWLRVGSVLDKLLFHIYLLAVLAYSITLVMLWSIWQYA

[7] = biological target: T6, 5-hydroxytryptamine receptor 1A (Homo sapiens, UniProt P08908); format: functional, cell-based
T6 sequence (P08908 whole entry): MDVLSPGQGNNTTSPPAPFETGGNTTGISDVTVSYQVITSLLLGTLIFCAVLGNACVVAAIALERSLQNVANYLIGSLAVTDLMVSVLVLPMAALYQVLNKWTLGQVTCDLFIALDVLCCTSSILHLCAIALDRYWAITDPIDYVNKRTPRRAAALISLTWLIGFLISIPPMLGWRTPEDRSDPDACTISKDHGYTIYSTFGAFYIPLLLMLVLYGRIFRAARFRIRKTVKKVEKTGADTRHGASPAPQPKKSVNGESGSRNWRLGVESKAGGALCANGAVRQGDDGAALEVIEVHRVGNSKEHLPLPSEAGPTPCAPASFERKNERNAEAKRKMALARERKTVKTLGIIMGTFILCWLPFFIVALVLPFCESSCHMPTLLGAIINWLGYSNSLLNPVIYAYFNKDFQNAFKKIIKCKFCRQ

Cannabinoid receptor 1 = Cannabinoid receptor 1 (Homo sapiens, UniProt P21554)
[8] = biological target: Beta-2 adrenergic receptor (Homo sapiens, UniProt P07550); format: functional, cell-based
Mu-type opioid receptor [9] = biological target: T2, Mu-type opioid receptor; assay: biochemical; format: functional
Also: assay procedure not described here.

Melanocortin receptor 4, sequence (P32245 whole entry): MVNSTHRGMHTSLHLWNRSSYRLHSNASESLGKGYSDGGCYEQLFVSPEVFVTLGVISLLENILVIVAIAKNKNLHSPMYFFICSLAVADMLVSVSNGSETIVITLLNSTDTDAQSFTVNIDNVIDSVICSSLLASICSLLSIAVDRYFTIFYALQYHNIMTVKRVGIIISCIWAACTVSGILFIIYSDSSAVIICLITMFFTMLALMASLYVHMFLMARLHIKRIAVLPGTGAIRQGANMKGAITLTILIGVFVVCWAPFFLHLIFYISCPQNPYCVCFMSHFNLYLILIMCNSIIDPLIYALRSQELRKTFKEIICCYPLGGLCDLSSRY
Voltage-gated inwardly rectifying potassium channel KCNH2, sequence (Q12809 whole entry): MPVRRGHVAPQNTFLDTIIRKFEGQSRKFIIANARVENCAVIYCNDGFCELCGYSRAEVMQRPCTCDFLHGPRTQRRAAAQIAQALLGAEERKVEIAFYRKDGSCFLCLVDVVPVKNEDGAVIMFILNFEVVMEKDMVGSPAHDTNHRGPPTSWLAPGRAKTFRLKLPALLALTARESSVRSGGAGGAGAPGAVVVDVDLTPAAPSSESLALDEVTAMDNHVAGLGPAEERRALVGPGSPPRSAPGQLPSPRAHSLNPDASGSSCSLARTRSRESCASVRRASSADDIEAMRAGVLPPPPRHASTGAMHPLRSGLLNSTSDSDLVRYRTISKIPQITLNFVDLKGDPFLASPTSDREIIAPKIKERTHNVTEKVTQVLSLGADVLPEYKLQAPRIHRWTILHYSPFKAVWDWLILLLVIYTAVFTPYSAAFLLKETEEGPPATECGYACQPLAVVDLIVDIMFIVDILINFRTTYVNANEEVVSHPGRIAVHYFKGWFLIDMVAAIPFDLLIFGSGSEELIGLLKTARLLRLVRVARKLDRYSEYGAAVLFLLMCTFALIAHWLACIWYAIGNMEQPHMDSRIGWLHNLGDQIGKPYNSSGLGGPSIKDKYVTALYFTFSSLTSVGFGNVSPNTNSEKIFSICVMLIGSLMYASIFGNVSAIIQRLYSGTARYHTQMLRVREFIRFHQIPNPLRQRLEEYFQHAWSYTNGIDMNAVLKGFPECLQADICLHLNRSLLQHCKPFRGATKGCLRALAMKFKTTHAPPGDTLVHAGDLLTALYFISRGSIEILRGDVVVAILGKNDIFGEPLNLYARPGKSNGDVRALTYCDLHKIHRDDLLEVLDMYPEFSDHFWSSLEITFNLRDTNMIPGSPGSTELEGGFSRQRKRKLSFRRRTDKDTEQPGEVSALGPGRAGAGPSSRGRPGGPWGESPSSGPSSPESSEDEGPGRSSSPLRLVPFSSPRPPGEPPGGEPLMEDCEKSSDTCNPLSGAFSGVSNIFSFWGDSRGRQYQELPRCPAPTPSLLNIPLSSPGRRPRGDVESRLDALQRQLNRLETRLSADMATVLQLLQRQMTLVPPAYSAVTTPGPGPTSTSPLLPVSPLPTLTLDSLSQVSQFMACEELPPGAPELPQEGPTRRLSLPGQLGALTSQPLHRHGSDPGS
Neuronal acetylcholine receptor subunit alpha-4, sequence (P43681 whole entry): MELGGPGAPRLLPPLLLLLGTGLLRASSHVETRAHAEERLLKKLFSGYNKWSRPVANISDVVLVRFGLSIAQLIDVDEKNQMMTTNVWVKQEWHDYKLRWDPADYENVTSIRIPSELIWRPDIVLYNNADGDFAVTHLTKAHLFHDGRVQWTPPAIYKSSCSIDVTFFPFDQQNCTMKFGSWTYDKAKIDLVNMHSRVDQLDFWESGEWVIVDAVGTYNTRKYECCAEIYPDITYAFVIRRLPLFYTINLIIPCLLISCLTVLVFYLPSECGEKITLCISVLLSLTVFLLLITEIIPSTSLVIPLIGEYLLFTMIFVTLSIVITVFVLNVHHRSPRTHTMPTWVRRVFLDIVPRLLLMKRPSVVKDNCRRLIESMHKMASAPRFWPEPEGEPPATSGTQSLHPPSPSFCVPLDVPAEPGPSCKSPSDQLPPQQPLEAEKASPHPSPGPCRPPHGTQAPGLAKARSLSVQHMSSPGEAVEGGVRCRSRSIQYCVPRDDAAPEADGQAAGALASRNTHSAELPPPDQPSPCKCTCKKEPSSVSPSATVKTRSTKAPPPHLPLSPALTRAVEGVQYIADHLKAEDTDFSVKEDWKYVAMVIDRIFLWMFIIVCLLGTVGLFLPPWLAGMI
T2 sequence (P35372 whole entry): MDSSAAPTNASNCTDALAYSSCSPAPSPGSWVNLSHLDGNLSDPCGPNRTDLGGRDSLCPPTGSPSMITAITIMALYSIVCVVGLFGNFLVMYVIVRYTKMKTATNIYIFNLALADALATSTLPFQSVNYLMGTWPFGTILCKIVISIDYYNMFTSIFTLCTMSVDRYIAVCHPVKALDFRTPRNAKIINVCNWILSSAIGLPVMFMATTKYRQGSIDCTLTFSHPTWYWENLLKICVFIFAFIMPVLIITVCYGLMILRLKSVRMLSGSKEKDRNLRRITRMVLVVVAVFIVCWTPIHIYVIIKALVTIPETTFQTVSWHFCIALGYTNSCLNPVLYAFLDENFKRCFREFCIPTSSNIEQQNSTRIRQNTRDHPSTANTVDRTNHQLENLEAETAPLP
Cannabinoid receptor 1, sequence (P21554 whole entry): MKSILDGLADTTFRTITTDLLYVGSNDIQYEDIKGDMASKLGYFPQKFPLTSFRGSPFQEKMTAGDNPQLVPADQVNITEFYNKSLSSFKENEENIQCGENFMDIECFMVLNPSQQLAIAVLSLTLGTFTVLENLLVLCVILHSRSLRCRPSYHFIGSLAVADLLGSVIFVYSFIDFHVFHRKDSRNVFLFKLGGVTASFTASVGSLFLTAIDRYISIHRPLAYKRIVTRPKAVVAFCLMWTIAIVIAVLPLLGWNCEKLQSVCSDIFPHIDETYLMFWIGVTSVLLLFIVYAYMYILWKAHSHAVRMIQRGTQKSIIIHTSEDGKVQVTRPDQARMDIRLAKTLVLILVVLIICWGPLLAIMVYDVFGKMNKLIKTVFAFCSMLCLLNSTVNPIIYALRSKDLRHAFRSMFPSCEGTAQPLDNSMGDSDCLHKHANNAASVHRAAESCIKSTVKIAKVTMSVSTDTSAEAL
Beta-2 adrenergic receptor, sequence (P07550 whole entry): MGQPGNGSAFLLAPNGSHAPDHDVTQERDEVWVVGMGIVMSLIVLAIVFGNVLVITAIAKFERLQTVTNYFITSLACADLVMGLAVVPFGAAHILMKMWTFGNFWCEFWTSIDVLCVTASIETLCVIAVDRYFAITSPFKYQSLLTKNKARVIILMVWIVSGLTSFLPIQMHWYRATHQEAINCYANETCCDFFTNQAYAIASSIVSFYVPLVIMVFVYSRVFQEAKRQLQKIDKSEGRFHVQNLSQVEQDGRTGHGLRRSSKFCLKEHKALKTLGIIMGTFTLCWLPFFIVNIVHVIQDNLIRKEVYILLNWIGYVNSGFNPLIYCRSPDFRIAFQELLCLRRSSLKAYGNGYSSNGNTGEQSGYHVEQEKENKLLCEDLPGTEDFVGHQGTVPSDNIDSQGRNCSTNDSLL

Compound	AC50 [1] [µM]	AC50 (Mu-type opioid receptor [2]) [µM]	AC50 (Estrogen receptor) [µM]	AC50 [3] [µM]	AC50 [4] [µM]	AC50 (Melanocortin receptor 4) [µM]	AC50 (Adenosine receptor A1) [µM]	AC50 [5] [µM]	AC50 [6] [µM]	AC50 [7] [µM]	AC50 (Cannabinoid receptor 1) [µM]	AC50 [8] [µM]	AC50 (Mu-type opioid receptor [9]) [µM]
CN1CCC2=C(C1)C(c1ccccc1)c1ccccc12 (stereo not drawn) [PHENINDAMINE]	> 10	> 30	> 30	> 30	> 10	> 10	> 10	> 10	12	> 10	> 10	–	–
Cc1c(Cl)cccc1Nc1ccccc1C(=O)O [TOLFENAMIC ACID]	–	–	–	> 30	> 30	–	> 30	> 30	> 30	> 30	–	> 30	> 30
COC(=O)C1=C(C)NC(C)=C(C(=O)OC(C)C)C1c1cccc2nonc12 (stereo not drawn) [ISRADIPINE]	> 30	> 30	–	> 30	> 30	> 30	> 30	> 10	> 30	> 10	> 10	–	> 30
CN1CCCN=C1COC(=O)C(O)(c1ccccc1)C1CCCCC1 (stereo not drawn) [OXYPHENCYCLIMINE]	> 10	> 30	> 10	3.77	> 10	> 10	> 10	> 10	> 30	> 10	> 10	–	> 30
CC(C)[N+](C)(CCC(C(N)=O)(c1ccccc1)c1ccccc1)C(C)C [ISOPROPAMIDE]	> 10	> 30	> 10	3.3	> 10	> 10	> 10	> 10	> 30	> 10	> 10	–	> 30
O=C(O)CCCc1ccccc1 [PHENYLBUTANOIC ACID]	14	> 10	–	> 30	> 10	> 10	> 10	> 30	> 30	> 30	> 30	–	> 30
CCCCCN(C)CCC(O)(P(=O)(O)O)P(=O)(O)O [IBANDRONIC ACID]	> 10	> 30	> 30	> 30	> 30	> 30	> 30	> 30	> 30	> 30	> 30	–	8.5
CC(=O)NS(=O)(=O)c1ccc(N)cc1 [SULFACETAMIDE]	> 10	> 30	> 10	> 30	> 10	> 10	> 10	> 10	> 30	> 10	> 10	–	–
